Reference: patent US5607919A, “Anti-microbial proteins” (Sandoz Ltd., priority 1993, dated 1997)

B1: WIN N: chitin-binding WIN protein purified from barley grain or stressed barley leaf; residues 22-146 in SEQ ID No. 11 (protein)
chain: QQANNVRATYHYYRPAQNNWDLGAPAVSAYCATWDASKPLSWRSKYGWTAFCGPAGPRGQAACGKCLRVTNPATGAQITARIVDQCANGGLDLDWDTVFTKIDTNGIGYQQGHLNVNYQFVDCRD

Legend:
Fusarium moniliforme = test: Anti-fungal activity against corn pathogens, microtiter spore assay; type: cell-based; conditions: 120 h; ni = did not inhibit fungal growth
[1] = system: Exserohilum turcicum race 1; test: as above; type: cell-based; conditions: 120 h; ni = did not inhibit fungal growth
Protocol: (§1) The AX proteins according to the present invention are assessed for their anti-fungal activity against a number of corn pathogens. Concerning the results depicted in Tables 1 and 2, the assay of the AX proteins in respect of the corn pathogens is performed as follows. Five μl of a solution containing the proteins at the indicated concentrations are aseptically transferred into a well of a sterile, round-bottomed microtiter plate. All treatments are replicated once. Un-inoculated and inoculated culture media minus test protein solution are routinely included as controls. Spores (100-150) are aseptically added to each sample in a 5.0 μl aliquot of double strength Potato Dextrose Broth (PDB).
(§2) Following gentle agitation to mix the protein sample and spore suspension, a double layer of parafilm is wrapped around the lid/plate junction in order to minimize desiccation and the thus wrapped microtiter plate is incubated at 19°±0.2° C. with a 16 h photoperiod.
(§3) Individual wells are scored for spore germination and mycelial growth every 24 h. At the end of 120 h the level of anti-fungal activity is determined.

Bipolaris maydis = test: as above; type: cell-based; conditions: 120 h; ni = did not inhibit fungal growth
Protocol: as §1, §2, §3

Cochliobolus sativus = test: Mycelial growth in agar droplets coated with test protein; type: cell-based; conditions: protein concentration 20 μg/ml; 5 days; ni = did not inhibit
Leptosphaeria nodorum = test: as above; type: cell-based; conditions: protein concentration 20 μg/ml; 5 days; ni = did not inhibit
[2] = system: Pseudocercosporella herpotrichoides; test: as above; type: cell-based; conditions: 5 days
[3] = system: Colletotrichum graminicola; test: Anti-fungal activity against corn pathogens, microtiter spore assay; type: cell-based; conditions: 120 h; ni = did not inhibit fungal growth
Monilinia fructigena = test: Mycelial growth in agar droplets coated with test protein; type: cell-based; conditions: protein concentration 20 μg/ml; 5 days; ni = did not inhibit
Fusarium graminearum = type: cell-based; conditions: 120 h; ni = did not inhibit fungal growth
Diplodia maydis = test: Anti-fungal activity against corn pathogens, microtiter spore assay; type: cell-based; conditions: 120 h; ni = did not inhibit fungal growth
Rhizoctonia solani = test: Mycelial growth in agar droplets coated with test protein; type: cell-based; conditions: 5 days
Botrytis cinerea = test: as above; type: cell-based; conditions: protein concentration 20 μg/ml; 5 days; ni = did not inhibit
[4] = system: Exserohilum turcicum race 2; type: cell-based; conditions: 120 h; ni = did not inhibit fungal growth
Fusarium culmorum = test: Mycelial growth in agar droplets coated with test protein; type: cell-based; conditions: protein concentration 20 μg/ml; 5 days; ni = did not inhibit
Protocol: Concerning the results shown in Table 3, the assay of the AX and WIN N proteins in respect of the disclosed pathogens is performed as follows. Mycelium from the disclosed fungi are dispersed in a drop of molten agar which is then solidified. The solid agar droplets comprising the encapsulated mycelia are then coated with the test protein in the specified amount. Following incubation for 5 days under moist conditions the amount of mycelial growth is determined in comparison with controls, in which the agar droplets comprising the fungal roycelia are not coated with test protein. The results presented in […]

Exserohilum turcicum = test: Anti-fungal activity against corn pathogens, microtiter spore assay (Table 2, race not given); type: cell-based; conditions: 120 h; ni = did not inhibit fungal growth
Gibberella zeae = type: cell-based; conditions: 120 h; ni = did not inhibit fungal growth
Pyricularia oryzae = type: cell-based; conditions: protein concentration 20 μg/ml; 5 days; ni = did not inhibit
C. beticola = test: Inhibition of fungal growth in 96 well micro-titre plates at 620 nm, spores of C. beticola; type: cell-based, Cercospora beticola; conditions: for 50% growth inhibition (I50) / IC50: C. beticola, after 72 hours incubation; for IC50: conversion of the ug/ml value, read-out: 50% growth inhibition (I50); for morphology of the fungus: FIG. 4, AX2 8 μg/ml, WIN 28 μg/ml; for rate of fungal hyphal extension: compared to controls
[5] = protein concentration 20 μg/ml, ni = did not inhibit

Molecule	Minimum inhibitory concentration (Fusarium moniliforme)	Protein concentration providing more than 50% growth inhibition (Fusarium moniliforme)	Minimum inhibitory concentration [1]	Minimum inhibitory concentration (Bipolaris maydis)	Protein concentration providing more than 50% growth inhibition (Bipolaris maydis)	Growth inhibition (Cochliobolus sativus)	Growth inhibition (Leptosphaeria nodorum)	Minimum inhibitory concentration [3]	Protein concentration providing more than 50% growth inhibition [3]	Growth inhibition (Monilinia fructigena)	Minimum inhibitory concentration (Fusarium graminearum)	Protein concentration providing more than 50% growth inhibition (Fusarium graminearum)	Minimum inhibitory concentration (Diplodia maydis)	Protein concentration providing more than 50% growth inhibition (Diplodia maydis)	Growth inhibition (Botrytis cinerea)	Minimum inhibitory concentration [4]	Growth inhibition (Fusarium culmorum)	Protein concentration providing more than 50% growth inhibition (Exserohilum turcicum)	Minimum inhibitory concentration (Gibberella zeae)	Protein concentration providing more than 50% growth inhibition (Gibberella zeae)	also measured
AX1: anti-microbial protein from sugar beet leaves infected with Cercospora beticola; residues 29-74 in SEQ ID No. 2, 46 amino acids (AICKKPSKFFKGACGRDADCEKACDQENWPGGVCVPFLRCECQRSC)	ni	ni	11 µg/mL	20 µg/mL	20 µg/mL	30%	ni	50 µg/mL	50 µg/mL	80%	33 µg/mL	33 µg/mL	11 µg/mL	11 µg/mL	ni	33 µg/mL	ni	33 µg/mL	ni	ni	Growth inhibition ([2]; protein concentration 20 μg/ml): 30%; Growth inhibition (Rhizoctonia solani; [5]): ni; Growth inhibition (Pyricularia oryzae): ni
AX2: anti-microbial protein from sugar beet leaves infected with Cercospora beticola; residues 29-74 in SEQ ID No. 5, 46 amino acids (ATCRKPSMYFSGACFSDTNCQKACNREDWPNGKCLVGFKCECQRPC)	ni	ni	98 µg/mL	30 µg/mL	33 µg/mL	30%	10%	50 µg/mL	50 µg/mL	80%	33 µg/mL	33 µg/mL	ni	ni	10%	ni	10%	ni	ni	ni	Growth inhibition ([2]; protein concentration 20 μg/ml): 30%; Growth inhibition (Rhizoctonia solani; protein concentration 40 μg/ml): 10%; 50% growth inhibition (I50) (C. beticola): 2 µg/mL; IC50 (C. beticola): ~0.5 µM; morphology of the fungus (C. beticola): markedly changed; growth in vitro of C. beticola (C. beticola; FIGS. 3A and 3B, result in words): greater than that of AX1; rate of fungal hyphal extension (C. beticola): profoundly slow; fungicidal activity against C. beticola (C. beticola; result in words): do not appear to exhibit fungicidal activity; Growth inhibition (Pyricularia oryzae): 20%
B1	ni	ni	ni	ni	ni	ni	ni	ni	ni	ni	ni	ni	64 µg/mL	64 µg/mL	ni	193 µg/mL	ni	193 µg/mL	ni	ni	Growth inhibition ([2]; protein concentration 40 μg/ml): 30%; Growth inhibition (Rhizoctonia solani; [5]): ni; 50% growth inhibition (I50) (C. beticola): 160 µg/mL; IC50 (C. beticola): ~11 µM; morphology of the fungus (C. beticola): markedly changed; rate of fungal hyphal extension (C. beticola): profoundly slow; fungicidal activity against C. beticola (C. beticola; result in words): do not appear to exhibit fungicidal activity; Growth inhibition (Pyricularia oryzae): ni
